Data: the supplement of paper PMC10307832

Compound: C=CC(=O)N1CCC[C@@H](n2nc(-c3ccc(Oc4ccccc4)cc3)c3c(N)ncnc32)C1 [Ibrutinib] + O=C(CCCCCCC(=O)Nc1ccccc1)NO [Vorinostat] (partner 1 µM)
Assay: relative viability (nuclei count vs DMSO), 5 days (fraction); higher = more cells survive
Outline: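 Lung cancer cell lines, seeded in 1536-well plates, were treated the following day by pin tool with a single drug or with five library-drug doses (not always all listed) in √10 steps on top of a fixed anchor-drug dose. Cells were fixed and nuclei stained in one step after 5 days, and nuclei were counted. Relative viability is the nuclei count for treated wells divided by that for vehicle wells, reported as medians of duplicate plates.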

Cell Line | relative viability (first compound 0.005 µM) | relative viability (first compound 0.01581 µM) | relative viability (first compound 0.5 µM) | relative viability (first compound 0.05 µM) | relative viability (first compound 0.1581 µM)
NCI-H2405 | 0.913 | 1.12 | 1.03 |  | 
NCI-H1734 | 0.74 | 0.789 | 0.772 | 0.781 | 0.92
NCI-H2087 | 0.97 | 0.745 | 0.538 | 0.385 | 
SW 900 | 0.343 | 0.43 | 0.527 | 0.488 | 0.4
NCI-H1793 | 0.405 | 0.643 | 0.367 | 0.47 | 0.518
EKVX | 0.811 | 0.549 | 0.365 | 0.633 | 0.657
NCI-H2126 | 0.454 | 0.748 | 0.56 | 0.644 | 0.725
NCI-H1993 | 0.443 | 0.759 | 0.486 | 1.13 | 1.01
EPLC-272H | 0.248 | 0.4 | 0.401 | 0.31 | 0.597
LU99A | 0.369 | 0.512 | 0.439 | 0.486 | 0.564
HCC-78 |  | 0.403 | 0.388 | 0.405 | 0.446
HCC-15 | 0.911 | 0.873 | 0.796 | 0.826 | 0.897
201T | 0.94 | 0.982 | 0.889 | 0.969 | 0.883
LCLC-103H | 0.776 | 0.878 | 0.754 | 0.777 | 0.782
RERF-LC-KJ | 0.631 | 0.703 | 0.659 | 0.593 | 0.668
NCI-H1650 | 0.579 | 0.589 | 0.535 | 0.422 | 0.71
NCI-H1355 |  | 0.626 | 0.549 |  | 0.688
NCI-H2085 | 0.85 | 0.708 | 0.695 | 0.74 | 0.62

Cell Line | relative viability (first compound 0.005 µM) | relative viability (first compound 0.01581 µM) | relative viability (first compound 0.5 µM) | relative viability (first compound 0.05 µM) | relative viability (first compound 0.1581 µM)
NCI-H650 | 0.36 | 0.389 | 0.45 | 0.413 | 0.578
NCI-H460 | 0.855 | 0.667 | 0.781 | 0.695 | 0.794
NCI-H1666 | 0.939 | 1.05 | 0.863 | 1.07 | 1.12
LK-2 | 0.236 | 0.234 | 0.177 | 0.266 | 0.293
NCI-H2009 | 0.728 | 0.705 | 0.742 | 0.764 | 0.759
COR-L 105 | 0.709 | 0.659 | 0.388 | 0.526 | 0.833
LXF-289 | 0.943 | 0.798 | 0.749 | 0.695 | 0.796
HARA | 0.606 | 0.482 | 0.553 | 0.663 | 0.64
NCI-H1975 | 0.759 | 0.556 | 0.324 | 0.649 | 0.792
UMC-11 | 0.39 | 0.376 |  | 0.454 | 0.345
NCI-H2023 | 0.565 | 0.6 | 0.49 | 0.48 | 0.918
NCI-H23 | 0.467 | 0.527 | 0.594 | 0.514 | 0.605
IA-LM | 1.04 | 0.864 | 0.822 | 0.918 | 
CAL-12T | 0.617 | 0.623 | 0.621 | 0.464 | 0.841
LCLC-97TM1 | 0.702 | 0.798 | 0.691 | 0.718 | 0.897
NCI-H661 | 0.746 | 0.761 | 0.752 | 0.752 | 0.758
NCI-H1944 | 0.551 | 0.47 | 0.467 | 0.517 | 0.47
NCI-H1915 | 0.453 | 0.484 | 0.494 | 0.438 | 0.678
